Measurements: ChEMBL document CHEMBL3885881, “DrugMatrix”

Organism: Rattus norvegicus
Assay: DrugMatrix - Regimen: Daily Repeat
Type: toxicity, organism-based, Sprague-Dawley
Parameters: regimen Daily Repeat, gender Male, age 6-8 weeks
Conditions: in vivo, sc, 24 mg/kg, route subcutaneous, dose level High, […]; for ABSOLUTE BASOPHIL / ABSOLUTE EOSINOPHIL / ABSOLUTE LYMPHOCYTE / ABSOLUTE MONOCYTE / ABSOLUTE SEGMENTED NEUTROPHIL / BASOPHIL / EOSINOPHIL / ERYTHROCYTE COUNT / HEMATOCRIT / HEMOGLOBIN / LEUKOCYTE COUNT / LYMPHOCYTE / MEAN CORPUSCULAR HEMOGLOBIN / MEAN CORPUSCULAR HEMOGLOBIN CONCENTRATION / MEAN CORPUSCULAR VOLUME / MONOCYTE / NEUTROPHIL / NUCLEATED RED BLOOD CELLS / PLATELET COUNT: tissue Blood; for ALANINE AMINOTRANSFERASE / ALBUMIN / ALKALINE PHOSPHATASE / ASPARTATE AMINOTRANSFERASE / BLOOD UREA NITROGEN / CARBON DIOXIDE / CHLORIDE / CHOLESTEROL / CREATINE PHOSPHOKINASE / CREATININE / GLUCOSE / LACTATE DEHYDROGENASE / LIPASE / PHOSPHORUS / POTASSIUM / SODIUM / TOTAL BILIRUBIN / TOTAL PROTEIN / URIC ACID: tissue Plasma

SMILES: CCCCNc1ccc(C(=O)OCCN(C)C)cc1 [TETRACAINE]
- ABSOLUTE BASOPHIL (72 h, time 3 day): 0 CELLS/uL
- ABSOLUTE EOSINOPHIL (72 h, time 3 day): 116 CELLS/uL
- ABSOLUTE LYMPHOCYTE (72 h, time 3 day): 16844.33 CELLS/uL
- ABSOLUTE MONOCYTE (72 h, time 3 day): 146.67 CELLS/uL
- ABSOLUTE SEGMENTED NEUTROPHIL (72 h, time 3 day): 1826.33 CELLS/uL
- BASOPHIL (72 h, time 3 day): 0%
- EOSINOPHIL (72 h, time 3 day): 0.67%
- ERYTHROCYTE COUNT (72 h, time 3 day): 5.64 x10E6/uL
- HEMATOCRIT (72 h, time 3 day): 36.43%
- HEMOGLOBIN (72 h, time 3 day): 14.5 G/DL
- LEUKOCYTE COUNT (72 h, time 3 day): 18.93 x10E3/uL
- LYMPHOCYTE (72 h, time 3 day): 89%
- MEAN CORPUSCULAR HEMOGLOBIN (72 h, time 3 day): 25.67 pg
- MEAN CORPUSCULAR HEMOGLOBIN CONCENTRATION (72 h, time 3 day): 39.83 G/DL
- MEAN CORPUSCULAR VOLUME (72 h, time 3 day): 64.53 fL
- MONOCYTE (72 h, time 3 day): 0.67%
- NEUTROPHIL (72 h, time 3 day): 9.67%
- NUCLEATED RED BLOOD CELLS (72 h, time 3 day): 0.33 /100WBC
- PLATELET COUNT (72 h, time 3 day): 1264.67 x10E3/uL
- ALANINE AMINOTRANSFERASE (72 h, time 3 day): 68.67 u/L
- ALBUMIN (72 h, time 3 day): 4.23 G/DL
- ALKALINE PHOSPHATASE (72 h, time 3 day): 328 u/L
- ASPARTATE AMINOTRANSFERASE (72 h, time 3 day): 81 u/L
- BLOOD UREA NITROGEN (72 h, time 3 day): 17 mg/dL
- CARBON DIOXIDE (72 h, time 3 day): 22.67 mmol/L
- CHLORIDE (72 h, time 3 day): 104 MEQ/L
- CHOLESTEROL (72 h, time 3 day): 77 mg/dL
- CREATINE PHOSPHOKINASE (72 h, time 3 day): 175.67 u/L
- CREATININE (72 h, time 3 day): 0.27 mg/dL
- GLUCOSE (72 h, time 3 day): 177.33 mg/dL
- LACTATE DEHYDROGENASE (72 h, time 3 day): 88.67 u/L
- LIPASE (72 h, time 3 day): 9.67 u/L
- PHOSPHORUS (72 h, time 3 day): 12.97 mg/dL
- POTASSIUM (72 h, time 3 day): 6.72 MEQ/L
- SODIUM (72 h, time 3 day): 147.97 MEQ/L
- TOTAL BILIRUBIN (72 h, time 3 day): 0.27 mg/dL
- TOTAL PROTEIN (72 h, time 3 day): 6.03 G/DL
- URIC ACID (72 h, time 3 day): 1.53 mg/dL
- ABSOLUTE BASOPHIL (120 h, time 5 day): 0 CELLS/uL
- ABSOLUTE EOSINOPHIL (120 h, time 5 day): 49.33 CELLS/uL
- ABSOLUTE LYMPHOCYTE (120 h, time 5 day): 12917.33 CELLS/uL
- ABSOLUTE MONOCYTE (120 h, time 5 day): 97.33 CELLS/uL
- ABSOLUTE SEGMENTED NEUTROPHIL (120 h, time 5 day): 1669.33 CELLS/uL
- BASOPHIL (120 h, time 5 day): 0%
- EOSINOPHIL (120 h, time 5 day): 0.33%
- ERYTHROCYTE COUNT (120 h, time 5 day): 5.38 x10E6/uL
- HEMATOCRIT (120 h, time 5 day): 33.97%
- HEMOGLOBIN (120 h, time 5 day): 13.67 G/DL
- LEUKOCYTE COUNT (120 h, time 5 day): 14.73 x10E3/uL
- LYMPHOCYTE (120 h, time 5 day): 87.67%
- MEAN CORPUSCULAR HEMOGLOBIN (120 h, time 5 day): 25.47 pg
- MEAN CORPUSCULAR HEMOGLOBIN CONCENTRATION (120 h, time 5 day): 40.3 G/DL
- MEAN CORPUSCULAR VOLUME (120 h, time 5 day): 63.2 fL
- MONOCYTE (120 h, time 5 day): 0.67%
- NEUTROPHIL (120 h, time 5 day): 11.33%
- NUCLEATED RED BLOOD CELLS (120 h, time 5 day): 0.33 /100WBC
- PLATELET COUNT (120 h, time 5 day): 1410.33 x10E3/uL
- ALANINE AMINOTRANSFERASE (120 h, time 5 day): 58.33 u/L
- ALBUMIN (120 h, time 5 day): 3.93 G/DL
- ALKALINE PHOSPHATASE (120 h, time 5 day): 329 u/L
- ASPARTATE AMINOTRANSFERASE (120 h, time 5 day): 92.67 u/L
- BLOOD UREA NITROGEN (120 h, time 5 day): 14.67 mg/dL
- CARBON DIOXIDE (120 h, time 5 day): 23 mmol/L
- CHLORIDE (120 h, time 5 day): 104.67 MEQ/L
- CHOLESTEROL (120 h, time 5 day): 71 mg/dL
- CREATINE PHOSPHOKINASE (120 h, time 5 day): 172 u/L
- CREATININE (120 h, time 5 day): 0.22 mg/dL
- GLUCOSE (120 h, time 5 day): 160.67 mg/dL
- LACTATE DEHYDROGENASE (120 h, time 5 day): 83.67 u/L
- LIPASE (120 h, time 5 day): 9.67 u/L
- PHOSPHORUS (120 h, time 5 day): 12.47 mg/dL
- POTASSIUM (120 h, time 5 day): 6.53 MEQ/L
- SODIUM (120 h, time 5 day): 146.2 MEQ/L
- TOTAL BILIRUBIN (120 h, time 5 day): 0.23 mg/dL
- TOTAL PROTEIN (120 h, time 5 day): 5.73 G/DL
- URIC ACID (120 h, time 5 day): 1.73 mg/dL
